What all share (test): whole plant or invertebrate
Assay type in all cases: functional
Common to all, as to conditions: Raphanus sativus, Japanese White, 120 h

Assay [1] deals with Radish.
Description: Herbicidal activity against Raphanus sativus var.Japanese White (radish) assessed as inhibition of seed germination at 200 ppm at 25 degC measured after 5 days
The subject of assay [2] is Radish. The source holds these as a separate data set.
Description: Herbicidal activity against Raphanus sativus var.Japanese White (radish) assessed as inhibition of seed germination at 100 ppm at 25 degC measured after 5 days
The test system of assay [3] is Radish. This is another data set of the same source.
Description: Herbicidal activity against Raphanus sativus var.Japanese White (radish) assessed as inhibition of seed germination at 50 ppm at 25 degC measured after 5 days

On to `COc1ccc(/C=C/C(=O)O)cc1` [4-METHOXYCINNAMIC ACID], for which the inhibition at 200 ppm in the assay on Radish [1] was 93.3%. This compound displayed an inhibition at 100 ppm in the assay on Radish [2] of 66.7%. For the same compound, the inhibition at 50 ppm in the assay on Radish [3] came out at 56.7%.
In the assay with Radish [1], `O=C(/C=C/c1ccc([N+](=O)[O-])cc1)Nc1ccccc1` [4-NITRO-CINNAMANILIDE] displayed an inhibition at 200 ppm of 100%. Moreover, in the assay on Radish [2], the inhibition at 100 ppm worked out at 90%. Also, in the assay on Radish [3], the inhibition at 50 ppm is 83.3%.
`COc1ccc(/C=C/C(=O)Nc2ccccc2Cl)cc1` returned an inhibition at 200 ppm in the assay with Radish [1] of 96.7%. The compound further displayed an inhibition at 100 ppm in the assay on Radish [2] of 83.3%. In the assay on Radish [3], the inhibition at 50 ppm turned out to be 76.7%.
The corresponding values for `O=C(/C=C/c1cccc(O)c1)Nc1ccccc1Cl` are 93.3%, 80% and 56.7%.
The matching figures for `O=C(/C=C/c1ccccc1[N+](=O)[O-])Nc1ccc([N+](=O)[O-])cc1` [4-NITRO-(2'-NITRO)CINNAMANILIDE]: 96.7%, 86.7% and 73.3%.
The corresponding values for `O=C(/C=C/c1cccc([N+](=O)[O-])c1)Nc1ccccc1Cl` are 100%, 93.3% and 83.3%.
With `O=C(/C=C/c1ccc([N+](=O)[O-])cc1)Nc1ccc([N+](=O)[O-])cc1` [4-NITRO-(4'-NITRO)CINNAMANILIDE], in the assay on Radish [1], 200 ppm produced 93.3% inhibition. In the assay on Radish [2], the inhibition at 100 ppm stood at 66.7%. Moreover, at 50 ppm the inhibition with Radish [3] was 60%.
The matching figures for `O=C(/C=C/c1ccccc1[N+](=O)[O-])Nc1ccccc1`: 100%, 86.7% and 73.3%.
The matching figures for `O=C(O)/C=C/c1cccc(Cl)c1` [3-CHLORO-CINNAMIC ACID]: 93.3%, 76.7% and 53.3%.
For the compound `O=C(/C=C/c1ccc([N+](=O)[O-])cc1)Nc1ccccc1Cl`, 200 ppm produced 100% inhibition with Radish [1]. Moreover, the inhibition at 100 ppm with Radish [2] is 86.7%. Moreover, the inhibition at 50 ppm in the assay with Radish [3] was 80%.
The matching figures for `O=C(/C=C/c1cccc(Cl)c1)Nc1ccccc1` [3-CHLORO-CINNAMANILIDE]: 100%, 93.3% and 70%.
In the case of `Cc1ccc(NC(=O)/C=C/c2cccc(Cl)c2)cc1` [4-METHYL-(3'-CHLORO)CINNAMANILIDE], testing at 200 ppm with Radish [1] gave an inhibition of 93.3%. At 100 ppm the inhibition in the assay on Radish [2] was 83.3%. In addition, in the assay with Radish [3], the inhibition at 50 ppm worked out at 70%.
In the case of `Cc1ccc(NC(=O)/C=C/c2cccc([N+](=O)[O-])c2)cc1` [4-METHYL-(3'-NITRO)CINNAMANILIDE], the inhibition at 200 ppm in the assay on Radish [1] amounted to 96.7%. This compound gave an inhibition at 100 ppm in the assay on Radish [2] of 86.7%. For the same compound, 50 ppm produced 73.3% inhibition in the assay on Radish [3].
For the compound `COc1ccc(/C=C/C(=O)Nc2ccccc2)cc1` [4-METHOXY-CINNAMANILIDE], at 200 ppm the inhibition with Radish [1] was 93.3%. Moreover, the inhibition at 100 ppm in the assay on Radish [2] came to 76.7%. In the assay on Radish [3], the inhibition at 50 ppm was 53.3%.
Consider `O=C(O)/C=C/c1cccc(O)c1`, for which, in the assay with Radish [1], the inhibition at 200 ppm was 100%. Also, in the assay on Radish [2], 100 ppm produced 86.7% inhibition. In addition, at 50 ppm the inhibition in the assay on Radish [3] was 56.7%.
The corresponding values for `O=C(O)/C=C/c1ccc(O)cc1` [COUMARIC ACID] are 100%, 73.3% and 53.3%.
Compound `O=C(O)/C=C/c1ccccc1[N+](=O)[O-]` came in with an inhibition at 200 ppm in the assay on Radish [1] of 100%. Moreover, in the assay on Radish [2], the inhibition at 100 ppm amounted to 86.7%. In the assay with Radish [3], this compound showed an inhibition at 50 ppm of 70%.
With `COc1ccc(/C=C/C(=O)Nc2ccc(C)cc2)cc1`, the inhibition at 200 ppm in the assay with Radish [1] turned out to be 100%. The compound also yielded an inhibition at 100 ppm with Radish [2] of 93.3%. This compound also registered an inhibition at 50 ppm with Radish [3] of 70%.
In turn, `O=C(O)/C=C/c1cccc([N+](=O)[O-])c1` [3-NITRO-CINNAMIC ACID] returned an inhibition at 200 ppm with Radish [1] of 100%. Also, the inhibition at 100 ppm in the assay with Radish [2] is 80%. In the assay on Radish [3], this compound came in with an inhibition at 50 ppm of 70.3%.
In the assay on Radish [1], `O=C(O)/C=C/c1ccc([N+](=O)[O-])cc1` displayed an inhibition at 200 ppm of 96.7%. This compound also gave an inhibition at 100 ppm with Radish [2] of 93.3%. This compound showed an inhibition at 50 ppm with Radish [3] of 70%.
`O=C(/C=C/c1cccc([N+](=O)[O-])c1)Nc1ccccc1` [3-NITRO-CINNAMANILIDE] registered an inhibition at 200 ppm in the assay on Radish [1] of 100%. This compound gave an inhibition at 100 ppm in the assay on Radish [2] of 73.3%. The same compound had an inhibition at 50 ppm with Radish [3] of 70%.
The corresponding values for `O=C(/C=C/c1ccccc1[N+](=O)[O-])Nc1ccccc1Cl` are 100%, 93.3% and 86.7%.
Regarding `O=C(/C=C/c1cccc(Cl)c1)Nc1ccccc1Cl`, the inhibition at 200 ppm in the assay on Radish [1] worked out at 76.7%. Also, in the assay on Radish [2], the inhibition at 100 ppm is 53.3%. Besides, 50 ppm produced 33.3% inhibition in the assay on Radish [3].
Regarding `CSc1nnc(C(C)(C)C)c(=O)n1N` [METRIBUZIN], in the assay with Radish [1], the inhibition at 200 ppm amounted to 100%. The compound further gave an inhibition at 100 ppm in the assay with Radish [2] of 93.3%. In addition, in the assay with Radish [3], the inhibition at 50 ppm came to 80%.
The matching figures for `O=C(/C=C/c1cccc(O)c1)Nc1ccccc1` [3-HYDROXY-CINNAMANILIDE]: 100%, 86.7% and 53.3%.
Take `Cc1ccc(NC(=O)/C=C/c2ccccc2[N+](=O)[O-])cc1` [4-METHYL-(2'-NITRO)CINNAMANILIDE]: 200 ppm produced 93.3% inhibition in the assay on Radish [1]. This compound gave an inhibition at 100 ppm in the assay with Radish [2] of 80%. For the same compound, in the assay on Radish [3], the inhibition at 50 ppm amounted to 63.3%.

One may read the inhibition as the drop in the measured response relative to a control, in per cent. Low values mean little suppression, high ones strong suppression.

(Values after ChEMBL document CHEMBL3046509, “Synthesis and structure--activity relationships of substituted cinnamic acids and amide analogues: a new class of herbicides” (2009).)
